US12295937B2, “Psychoactive medicines and their use for treating psychiatric and neurological conditions and disorders” (Transcend Therapeutics, Inc., priority 2021, dated 2025)

What was measured:
[1] = Excipient compatibility study (assay, appearance, degradation products); format: physicochemical
Method: Analyses were conducted at t=0, 2, 4 and 8 weeks for appearance, assay, and related substances for samples stored in closed vials at 25° C./60% RH and 40° C./75% RH.
Excipient Compatibility Sample Mixtures: The excipients and API were dispensed individually by weight into 20 mL clear borosilicate (type I) glass vials to fill the appropriate weights as listed in Table 12. Table 12 lists mixtures of API with varied excipients and a stand-alone control sample of API alone. Each excipient mixture sample preparation was conducted using a clean spatula to mix the vial ingredients for 30-60 seconds. Each vial was properly labeled with the description and storage conditions. One vial was used for testing at the initial (t=0) time point. Three vials, closed, were placed at each storage condition to allow sampling at each time point and one vial, closed, was placed at each storage condition for overage.

[2] = target: serotonin transporter (Homo sapiens, UniProt P31645); details: cited from earlier work
[3] = target: 168 GPCRs (Homo sapiens, UniProt Q16602); experiment: β-arrestin GPCR screen (PathHunter / GPCRmax), agonist mode; format: cell-based; parameters: host or cells: PathHunter cell lines; details: CALCRL-RAMP3, 1 uM
Method: For agonist determination, cells were incubated with sample to induce response. […] Vehicle concentration was 1%.

[4] = tested on: Sprague Dawley rat neurons; experiment: Neurite outgrowth in E18 cortical cultures; format: cell-based; details: 10 μM, applied day 1, fixed day 3-4
Method: Neuroplasticity is defined as changes in the structure, connections and function of neurons, including neurite outgrowth. […] E18 cortical cultures were harvested and plated on culture dishes. […] Neurite length was measured using ImageJ software.

[5] = target: T1, 5HT5A (Homo sapiens, UniProt P47898); experiment: GPCRmax screen, agonist mode, 5HT5A; format: cell-based; details: 1 or 10 mM
T1 construct: host or cells: PathHunter cell lines

[6] = target: Human serotonin 5HT2B receptor (Homo sapiens, UniProt P41595); experiment: Competitive radioligand binding to 5HT2B receptor membranes
Method: Human serotonin 5HT2B receptor membrane preparations were divided into aliquots. On the day of the assay, membranes were diluted at 1:200 in incubation buffer. […] To each well was added 150 μL membrane preparation, 50 μL test compound, non-specific compound, or buffer alone, as well as 50 μL radioligand. The plate was incubated at 35° C. for 90 minutes with gentle agitation. […] For each concentration of drug, non-specific binding was subtracted from total binding to give specific binding. […] Ki was subsequently calculated using the ChengPrusoff equation.

[7] = Mouse fear extinction paradigm (PTSD model); format: in vivo; details: 30 mg/kg IP 30 min before extinction training; day 3
Excerpt: (FIG. 9A) Schematic of experimental design. A single CS-US (tone-shock) pairing on day 1 was followed by 6 CS presentations in a novel context (context B). […] On day 3, the time spent freezing to the CS was quantified. […] (FIG. 9C) No locomotor changes were observed on day 3 (t(26)=1.073, p>0.05). Data are mcan+/−SEM.
FIGS. 10A-10B: MBDB improves fear extinction in a PTSD mouse model. A single CS-US (tone-shock) pairing on day 1 was followed by 6 conditioned stimulus (CS) presentations in a novel context (context B). MBDB or saline vehicle was injected 30 min prior to extinction training on day 2. The time spent freezing to the CS was quantified on day 2. […] Data are mean+/−SEM. N=10 for MBDB group (5 mg/kg, IP) and N=16 for saline control group. **p<0.01 vs. vehicle control group.
Effective PTSD treatments facilitate the disassociation between a traumatic memory and the patient's fear response, making cues for the traumatic memory evoke less of a fear response. This is modeled in the mouse fear extinction paradigm (see FIG. 9A) which takes place over 3 days. […] On day 3 (extinction recall), the mice are “asked” if that tone (CS) still elicits a fearful response, as measured by the time spent freezing when the tone is presented. […]

[8] = Cued fear conditioning / extinction training and recall; format: in vivo, mouse
Method: Methods: Cued fear conditioning was performed in C57BL/6J mice. On day 1, animals were placed in the chambers and presented with a training session (CS-US pairing). The training consisted of a 2-minute habituation followed by a 30-second, 80 dB tone; during the last 2 seconds of the tone animals received a 1 mA foot shock. This US-CS procedure occurred once for a total of one paired presentation of tone and shock. Freezing behavior (immobility) was recorded in 5-10-see intervals during the session. Percent baseline freezing behavior was determined in the 2-minute habituation period. On day 3, animals were placed in context B, in which tactile and odor cues differed from context A. Following a 2 minute acclimation period animals received 4×30 sec presentations of the CS (tone) in the absence of the US (footshock), with a 45 sec interval between presentations. Freezing was recorded in 5-10-sec intervals to measure baseline freezing response to the altered context, and freezing response to each tone cuc presentation. […] On day 4 (Post-Extinction Testing in Drug-Free State), animals were placed in Context B. Following a 2 min acclimation period, animals received 4×30 sec extinction tone duration presentations of the CS (tone) in the absence of the US (footshock), with a 45 sec interval between presentations. Freezing was recorded in 5-10-sec intervals to measure baseline freezing response to the altered context, and freezing response to each tone cue presentation.

Chain of Human serotonin 5HT2B receptor (P41595 whole entry): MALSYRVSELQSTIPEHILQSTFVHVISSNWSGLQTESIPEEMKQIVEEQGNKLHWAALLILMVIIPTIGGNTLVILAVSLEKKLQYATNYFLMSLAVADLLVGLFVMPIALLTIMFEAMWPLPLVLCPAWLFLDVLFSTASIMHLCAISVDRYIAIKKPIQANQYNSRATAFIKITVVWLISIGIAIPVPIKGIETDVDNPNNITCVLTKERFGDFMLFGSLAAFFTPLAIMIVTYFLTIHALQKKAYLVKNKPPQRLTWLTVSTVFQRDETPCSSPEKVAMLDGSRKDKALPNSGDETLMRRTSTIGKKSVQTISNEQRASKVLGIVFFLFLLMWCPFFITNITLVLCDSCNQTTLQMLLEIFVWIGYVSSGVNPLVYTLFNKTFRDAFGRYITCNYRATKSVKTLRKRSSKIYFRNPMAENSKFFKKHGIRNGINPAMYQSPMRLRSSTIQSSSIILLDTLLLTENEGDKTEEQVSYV
Chain of serotonin transporter (P31645 whole entry): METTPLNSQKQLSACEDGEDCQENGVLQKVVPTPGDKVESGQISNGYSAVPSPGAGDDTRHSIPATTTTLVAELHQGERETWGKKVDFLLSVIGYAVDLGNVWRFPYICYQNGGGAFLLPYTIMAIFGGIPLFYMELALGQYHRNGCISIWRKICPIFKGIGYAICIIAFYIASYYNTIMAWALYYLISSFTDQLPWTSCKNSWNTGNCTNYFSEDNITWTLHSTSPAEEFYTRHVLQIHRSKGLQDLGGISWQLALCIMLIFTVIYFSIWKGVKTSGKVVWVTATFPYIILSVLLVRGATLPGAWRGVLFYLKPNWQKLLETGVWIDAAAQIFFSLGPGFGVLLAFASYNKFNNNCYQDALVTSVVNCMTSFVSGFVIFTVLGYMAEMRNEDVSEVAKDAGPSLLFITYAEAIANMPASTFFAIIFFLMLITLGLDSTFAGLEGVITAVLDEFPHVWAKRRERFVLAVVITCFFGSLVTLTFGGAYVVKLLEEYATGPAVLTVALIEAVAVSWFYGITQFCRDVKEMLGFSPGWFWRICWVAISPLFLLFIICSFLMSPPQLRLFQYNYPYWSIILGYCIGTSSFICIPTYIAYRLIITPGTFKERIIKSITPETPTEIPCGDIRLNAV
Chain of 168 GPCRs (Q16602 23-461): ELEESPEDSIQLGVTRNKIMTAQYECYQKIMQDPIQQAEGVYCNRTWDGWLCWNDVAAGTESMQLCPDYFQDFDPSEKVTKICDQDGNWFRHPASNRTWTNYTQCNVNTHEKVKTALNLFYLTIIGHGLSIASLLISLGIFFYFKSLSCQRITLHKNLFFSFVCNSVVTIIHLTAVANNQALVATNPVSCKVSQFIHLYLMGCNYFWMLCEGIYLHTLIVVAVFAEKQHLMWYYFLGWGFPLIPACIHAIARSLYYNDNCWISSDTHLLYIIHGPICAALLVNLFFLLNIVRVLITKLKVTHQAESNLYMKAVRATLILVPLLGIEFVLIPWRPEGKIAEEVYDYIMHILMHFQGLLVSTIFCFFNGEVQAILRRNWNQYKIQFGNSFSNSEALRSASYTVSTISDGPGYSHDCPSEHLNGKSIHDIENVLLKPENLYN
T1 sequence (P47898 whole entry): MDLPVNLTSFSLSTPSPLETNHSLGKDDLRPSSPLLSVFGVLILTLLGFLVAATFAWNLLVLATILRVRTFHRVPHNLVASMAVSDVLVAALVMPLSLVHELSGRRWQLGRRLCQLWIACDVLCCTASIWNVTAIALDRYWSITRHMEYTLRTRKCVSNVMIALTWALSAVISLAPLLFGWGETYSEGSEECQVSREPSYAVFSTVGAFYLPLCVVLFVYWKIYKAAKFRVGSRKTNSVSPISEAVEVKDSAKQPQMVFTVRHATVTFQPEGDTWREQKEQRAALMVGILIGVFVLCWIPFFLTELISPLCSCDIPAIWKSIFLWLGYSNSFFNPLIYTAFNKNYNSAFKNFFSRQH

Compound: CNC(C)C(=O)c1ccc2c(c1)OCO2 (stereo not drawn) [Methylone, 3,4-methylenedioxy-N-methylcathinone]
- Total Degradation Products ([1]; 2 Week 25° C. 60% RH): <LOQ
- Total Degradation Products ([1]; 2 Week 40° C. 75% RH): <LOQ
- Total Degradation Products ([1]; 4 Week 25° C. 60% RH): <LOQ
- Total Degradation Products ([1]; 8 Week 25° C. 60% RH): <LOQ
- Total Degradation Products ([1]; t = 0, LOQ ≥ 0.1%): <LOQ
- Affinity for the serotonin transporter, times lower compared to MDMA [2]: 3 ×
- % Activity [3]: −2.2%
- Increase in neurite length vs. vehicle [4]: ~2 fold
- Agonist % activity (greatest activity detected) [5]: 13.9%
- IC50 [6]: 4.28 µM
- Ki [6]: 3.75 µM
- Enhancement of fear extinction recall vs. saline controls [7]: ~60%
- Persistence of effect post dose ([8]; 30 mg/kg IP): at least 11 days
- Effect on fear extinction training and testing ([8]; 30 mg/kg IP, 30 min before extinction training on Day 3): rapid, robust and long-lasting beneficial effect on fear extinction training and testing
- Fear extinction training on day 3 ([8]; 10, 20 or 30 mg/kg IP): All doses significantly improved fear extinction training on day 3
